According to patent EP4063856A1, “METHODS AND COMPOSITIONS FOR IN VITRO SCREENING OF PROTEASE INHIBITORS” (Universiteit Antwerpen, priority 2021, dated 2022):
Structures can show the parent of a compound that is named as a salt.

Key:
[1] = target: T1, recombinant TMPRSS2 (rTMPRSS2) (Homo sapiens, UniProt O15393); test: Inhibitor screening assay with medium containing recombinant TMPRSS2 (trypsin-like activity, Boc-QAR-AMC substrate, fluorescence); format: biochemical; conditions: 15 minutes of incubation at 37°C, 30 µM Boc-QAR-AMC, read-out: Inhibitory effect (%): percentage of inhibited trypsin-like activity
T1 construct: The expression vector, encoding the serine protease domain of TMPRSS2, a His-tag and a secretion signal; His-tag; secretion signal; made in house; host or cells: HEK293T cells, transient transfection; unpurified cell medium used
Experimental: Cell medium containing the TMPRSS2 serine protease domain was collected 4 days post-transfection and trypsin-like activity was determined as described above.
On the one hand, intact prostasomes and on the other hand, medium containing recombinant TMPRSS2 (rTMPRSS2) were used. The prostasome suspension and rTMPRSS2 were diluted so that less than 10% substrate conversion was observed after 30 minutes of measurement and trypsin-like activities of both preparations were similar (approximately 0.025 U/L). The inhibitors were added to the samples in concentrations of 10 µM, 1 µM and 100 nM, followed by 15 minutes of incubation at 37°C. The substrate, Boc-QAR-AMC (Bachem), was added in a final concentration of 30 µM. This concentration was determined to be the Michaelis-Menten constant for Boc-QAR-AMC and recombinant TMPRSS2. Fluorescence was measured kinetically at 37°C for 20 minutes on a Tecan F200 multi-plate reader at an excitation and emission wavelength of 380 nm and 465 nm, respectively. The inhibitory effect was calculated by dividing the trypsin-like activity without inhibitor by the activity with inhibitor and was expressed as percentage inhibition.

TMPRSS2 in prostasomes = target: T2, TMPRSS2 in prostasomes (Homo sapiens, UniProt O15393); test: Inhibitor screening assay with intact prostasomes (trypsin-like activity, Boc-QAR-AMC substrate, fluorescence); format: biochemical; conditions: 15 minutes of incubation at 37°C, 30 µM Boc-QAR-AMC, read-out: Inhibitory effect (%): percentage of inhibited trypsin-like activity
T2 construct: Prostasomes or extracellular vesicles were isolated from semen samples using ultracentrifugation and size-exclusion chromatography; from tissue; host or cells: prostasomes (extracellular vesicles) from pooled semen samples
T2 sequence (O15393 256-492 limits assumed): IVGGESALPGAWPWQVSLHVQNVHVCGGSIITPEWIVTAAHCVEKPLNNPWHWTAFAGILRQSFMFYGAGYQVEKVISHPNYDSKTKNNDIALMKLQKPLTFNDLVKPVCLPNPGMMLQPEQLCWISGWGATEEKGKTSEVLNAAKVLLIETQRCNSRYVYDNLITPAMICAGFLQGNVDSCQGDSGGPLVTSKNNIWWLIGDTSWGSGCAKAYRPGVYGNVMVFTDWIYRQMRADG
T2 sequence (O15393 1-255 limits assumed): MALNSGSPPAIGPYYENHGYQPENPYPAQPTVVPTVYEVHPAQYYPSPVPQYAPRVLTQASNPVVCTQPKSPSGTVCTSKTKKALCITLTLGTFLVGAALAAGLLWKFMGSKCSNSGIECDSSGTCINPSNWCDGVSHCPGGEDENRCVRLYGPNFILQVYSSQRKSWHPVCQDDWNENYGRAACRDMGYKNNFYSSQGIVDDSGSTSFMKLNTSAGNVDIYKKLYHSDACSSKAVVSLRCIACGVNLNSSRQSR
Experimental: Trypsin-like activity in the intact prostasomes was determined using 100 µM Boc-QAR-AMC (Bachem) in 50 mM Tris 120 mM NaCl pH 8,0. Fluorescence was measured kinetically at 37°C for 20 minutes on a Tecan F200 multi-plate reader at an excitation and emission wavelength of 380 nm and 465 nm, respectively.
On the one hand, intact prostasomes and on the other hand, medium containing recombinant TMPRSS2 (rTMPRSS2) were used. The prostasome suspension and rTMPRSS2 were diluted so that less than 10% substrate conversion was observed after 30 minutes of measurement and trypsin-like activities of both preparations were similar (approximately 0.025 U/L). The inhibitors were added to the samples in concentrations of 10 µM, 1 µM and 100 nM, followed by 15 minutes of incubation at 37°C. The substrate, Boc-QAR-AMC (Bachem), was added in a final concentration of 30 µM. […] Fluorescence was measured kinetically at 37°C for 20 minutes on a Tecan F200 multi-plate reader at an excitation and emission wavelength of 380 nm and 465 nm, respectively. The inhibitory effect was calculated by dividing the trypsin-like activity without inhibitor by the activity with inhibitor and was expressed as percentage inhibition.

T1 sequence (O15393 256-492 limits assumed): as the sequence (O15393 256-492 limits assumed) above

inhibition at 0.1 µM ([1]; 100 nM inhibitor): 73%
inhibition at 1 µM ([1]; 1 µM inhibitor): 88%
inhibition at 10 µM ([1]; 10 µM inhibitor): 100%
inhibition at 0.1 µM (TMPRSS2 in prostasomes; 100 nM inhibitor): 99%
inhibition at 1 µM (TMPRSS2 in prostasomes; 1 µM inhibitor): 100%
inhibition at 10 µM (TMPRSS2 in prostasomes; 10 µM inhibitor): 100%
SMILES: CN(C)C(=O)COC(=O)Cc1ccc(OC(=O)c2ccc(NC(=N)N)cc2)cc1 [Camostat, camostat mesylate]
